Experimental data reported in PubChem BioAssay (NCI).
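Method: 48-hour compound exposure of cells in 96-well plates, five concentrations, linear interpolation of endpoints. TGI: total growth inhibition.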

How the values were obtained:
Experiment in all cases: NCI anticancer screen, dose series, 48 h
KM20L2 colon = test system: KM20L2 colon
COLO 205 colon = test system: COLO 205 colon
DMS 114 small cell lung = test system: DMS 114 small cell lung
HT29 colon = test system: HT29 colon
HOP-18 NSCLC = test system: HOP-18 NSCLC
UO-31 renal = test system: UO-31 renal
HCT-15 colon = test system: HCT-15 colon
XF 498 CNS = test system: XF 498 CNS
A498 renal = test system: A498 renal
HL-60(TB) leukemia = test system: HL-60(TB) leukemia
SK-MEL-5 melanoma = test system: SK-MEL-5 melanoma
HOP-62 NSCLC = test system: HOP-62 NSCLC
EKVX NSCLC = test system: EKVX NSCLC
OVCAR-5 ovarian = test system: OVCAR-5 ovarian
NCI-H460 lung = test system: NCI-H460 lung
DLD-1 colon = test system: DLD-1 colon
SK-MEL-28 melanoma = test system: SK-MEL-28 melanoma
HCC-2998 colon = test system: HCC-2998 colon
SR leukemia = test system: SR leukemia
LXFL 529 NSCLC = test system: LXFL 529 NSCLC
SF-295 CNS = test system: SF-295 CNS
RXF-631 renal = test system: RXF-631 renal
UACC-62 melanoma = test system: UACC-62 melanoma
SNB-75 CNS = test system: SNB-75 CNS
SNB-78 CNS = test system: SNB-78 CNS
SK-OV-3 ovarian = test system: SK-OV-3 ovarian
ACHN renal = test system: ACHN renal
UACC-257 melanoma = test system: UACC-257 melanoma
CCRF-CEM leukemia = test system: CCRF-CEM leukemia
KM12 colon = test system: KM12 colon
A549 NSCLC = test system: A549 NSCLC
HCT-116 colon = test system: HCT-116 colon
M19-MEL melanoma = test system: M19-MEL melanoma
SW-620 colon = test system: SW-620 colon
OVCAR-8 ovarian = test system: OVCAR-8 ovarian
CAKI-1 renal = test system: CAKI-1 renal
RXF 393 renal = test system: RXF 393 renal
NCI-H522 lung = test system: NCI-H522 lung
M14 melanoma = test system: M14 melanoma
U251 CNS = test system: U251 CNS
TK-10 renal = test system: TK-10 renal
SN12C renal = test system: SN12C renal
MALME-3M melanoma = test system: MALME-3M melanoma
NCI-H23 lung = test system: NCI-H23 lung
NCI-H226 lung = test system: NCI-H226 lung
MOLT-4 leukemia = test system: MOLT-4 leukemia
SF-268 CNS = test system: SF-268 CNS
OVCAR-3 ovarian = test system: OVCAR-3 ovarian
786-0 renal = test system: 786-0 renal
DMS 273 small cell lung = test system: DMS 273 small cell lung
HOP-92 NSCLC = test system: HOP-92 NSCLC
SK-MEL-2 melanoma = test system: SK-MEL-2 melanoma
OVCAR-4 ovarian = test system: OVCAR-4 ovarian
IGROV1 ovarian = test system: IGROV1 ovarian
SNB-19 CNS = test system: SNB-19 CNS
SF-539 CNS = test system: SF-539 CNS
K-562 leukemia = test system: K-562 leukemia
LOX IMVI melanoma = test system: LOX IMVI melanoma
RPMI-8226 leukemia = test system: RPMI-8226 leukemia

O=C(CC1C(=O)Nc2ccccc2S1=O)Nc1ccccc1 (configuration not stated)
TGI (KM20L2 colon): > 100 µM
TGI (COLO 205 colon): > 100 µM
TGI (DMS 114 small cell lung): > 100 µM
TGI (HT29 colon): > 100 µM
TGI (HOP-18 NSCLC): > 100 µM
TGI (UO-31 renal): > 100 µM
TGI (HCT-15 colon): > 100 µM
TGI (XF 498 CNS): > 100 µM
TGI (A498 renal): > 100 µM
TGI (HL-60(TB) leukemia): > 100 µM
TGI (SK-MEL-5 melanoma): > 100 µM
TGI (HOP-62 NSCLC): > 100 µM
TGI (EKVX NSCLC): > 100 µM
TGI (OVCAR-5 ovarian): > 100 µM
TGI (NCI-H460 lung): > 100 µM
TGI (DLD-1 colon): > 100 µM
TGI (SK-MEL-28 melanoma): > 100 µM
TGI (HCC-2998 colon): > 100 µM
TGI (SR leukemia): > 100 µM
TGI (LXFL 529 NSCLC): > 100 µM
TGI (SF-295 CNS): > 100 µM
TGI (RXF-631 renal): > 100 µM
TGI (UACC-62 melanoma): > 100 µM
TGI (SNB-75 CNS): > 100 µM
TGI (SNB-78 CNS): > 100 µM
TGI (SK-OV-3 ovarian): 62.6 µM
TGI (ACHN renal): > 100 µM
TGI (UACC-257 melanoma): > 100 µM
TGI (CCRF-CEM leukemia): > 100 µM
TGI (KM12 colon): > 100 µM
TGI (A549 NSCLC): > 100 µM
TGI (HCT-116 colon): > 100 µM
TGI (M19-MEL melanoma): > 100 µM
TGI (SW-620 colon): > 100 µM
TGI (OVCAR-8 ovarian): > 100 µM
TGI (CAKI-1 renal): > 100 µM
TGI (RXF 393 renal): 45 µM
TGI (NCI-H522 lung): > 100 µM
TGI (M14 melanoma): > 100 µM
TGI (U251 CNS): > 100 µM
TGI (TK-10 renal): > 100 µM
TGI (SN12C renal): > 100 µM
TGI (MALME-3M melanoma): > 100 µM
TGI (NCI-H23 lung): > 100 µM
TGI (NCI-H226 lung): > 100 µM
TGI (MOLT-4 leukemia): > 100 µM
TGI (SF-268 CNS): > 100 µM
TGI (OVCAR-3 ovarian): > 100 µM
TGI (786-0 renal): > 100 µM
TGI (DMS 273 small cell lung): > 100 µM
TGI (HOP-92 NSCLC): > 100 µM
TGI (SK-MEL-2 melanoma): > 100 µM
TGI (OVCAR-4 ovarian): > 100 µM
TGI (IGROV1 ovarian): > 100 µM
TGI (SNB-19 CNS): > 100 µM
TGI (SF-539 CNS): > 100 µM

COc1ccc(NC(=O)/C(Cc2nc3ccccc3[nH]c2=O)=N\O)c(OC)c1
TGI (KM20L2 colon): > 100 µM
TGI (COLO 205 colon): > 100 µM
TGI (DMS 114 small cell lung): > 100 µM
TGI (HT29 colon): > 100 µM
TGI (HOP-18 NSCLC): > 100 µM
TGI (UO-31 renal): > 100 µM
TGI (K-562 leukemia): > 100 µM
TGI (HCT-15 colon): > 100 µM
TGI (XF 498 CNS): > 100 µM
TGI (A498 renal): > 100 µM
TGI (LOX IMVI melanoma): > 100 µM
TGI (HL-60(TB) leukemia): > 100 µM
TGI (SK-MEL-5 melanoma): > 100 µM
TGI (HOP-62 NSCLC): > 100 µM
TGI (EKVX NSCLC): > 100 µM
TGI (OVCAR-5 ovarian): > 100 µM
TGI (RPMI-8226 leukemia): > 100 µM
TGI (NCI-H460 lung): > 100 µM
TGI (DLD-1 colon): > 100 µM
TGI (SK-MEL-28 melanoma): > 100 µM
TGI (HCC-2998 colon): > 100 µM
TGI (SR leukemia): > 100 µM
TGI (LXFL 529 NSCLC): > 100 µM
TGI (SF-295 CNS): > 100 µM
TGI (RXF-631 renal): > 100 µM
TGI (UACC-62 melanoma): > 100 µM
TGI (SNB-75 CNS): > 100 µM
TGI (SNB-78 CNS): > 100 µM
TGI (SK-OV-3 ovarian): > 100 µM
TGI (ACHN renal): > 100 µM
TGI (UACC-257 melanoma): > 100 µM
TGI (CCRF-CEM leukemia): > 100 µM
TGI (KM12 colon): > 100 µM
TGI (A549 NSCLC): > 100 µM
TGI (HCT-116 colon): > 100 µM
TGI (M19-MEL melanoma): > 100 µM
TGI (SW-620 colon): > 100 µM
TGI (OVCAR-8 ovarian): > 100 µM
TGI (CAKI-1 renal): > 100 µM
TGI (RXF 393 renal): > 100 µM
TGI (NCI-H522 lung): > 100 µM
TGI (M14 melanoma): > 100 µM
TGI (U251 CNS): > 100 µM
TGI (TK-10 renal): > 100 µM
TGI (SN12C renal): > 100 µM
TGI (MALME-3M melanoma): > 100 µM
TGI (NCI-H23 lung): > 100 µM
TGI (NCI-H226 lung): > 100 µM
TGI (SF-268 CNS): > 100 µM
TGI (OVCAR-3 ovarian): > 100 µM
TGI (786-0 renal): > 100 µM
TGI (HOP-92 NSCLC): > 100 µM
TGI (OVCAR-4 ovarian): > 100 µM
TGI (IGROV1 ovarian): > 100 µM
TGI (SNB-19 CNS): > 100 µM
TGI (SF-539 CNS): > 100 µM

O=C1C2C(C(=O)N1c1ccccc1)C1(Br)c3ccccc3C2(Br)C2C(=O)N(c3ccccc3)C(=O)C21 (configuration not stated)
TGI (KM20L2 colon): > 31.6 µM
TGI (COLO 205 colon): > 31.6 µM
TGI (DMS 114 small cell lung): > 31.6 µM
TGI (HT29 colon): > 31.6 µM
TGI (HOP-18 NSCLC): > 31.6 µM
TGI (UO-31 renal): > 31.6 µM
TGI (K-562 leukemia): > 31.6 µM
TGI (HCT-15 colon): > 31.6 µM
TGI (XF 498 CNS): > 100 µM
TGI (A498 renal): > 100 µM
TGI (LOX IMVI melanoma): > 31.6 µM
TGI (HL-60(TB) leukemia): > 31.6 µM
TGI (SK-MEL-5 melanoma): > 31.6 µM
TGI (EKVX NSCLC): > 31.6 µM
TGI (OVCAR-5 ovarian): > 31.6 µM
TGI (RPMI-8226 leukemia): > 31.6 µM
TGI (NCI-H460 lung): > 31.6 µM
TGI (DLD-1 colon): > 31.6 µM
TGI (SK-MEL-28 melanoma): > 31.6 µM
TGI (HCC-2998 colon): > 31.6 µM
TGI (LXFL 529 NSCLC): > 31.6 µM
TGI (SF-295 CNS): > 100 µM
TGI (RXF-631 renal): > 100 µM
TGI (UACC-62 melanoma): > 31.6 µM
TGI (SNB-75 CNS): > 31.6 µM
TGI (SNB-78 CNS): > 31.6 µM
TGI (SK-OV-3 ovarian): > 100 µM
TGI (ACHN renal): > 31.6 µM
TGI (UACC-257 melanoma): > 31.6 µM
TGI (CCRF-CEM leukemia): > 31.6 µM
TGI (KM12 colon): > 31.6 µM
TGI (A549 NSCLC): > 31.6 µM
TGI (HCT-116 colon): > 31.6 µM
TGI (M19-MEL melanoma): > 31.6 µM
TGI (SW-620 colon): > 31.6 µM
TGI (OVCAR-8 ovarian): > 100 µM
TGI (CAKI-1 renal): > 100 µM
TGI (RXF 393 renal): 27.1 µM
TGI (M14 melanoma): > 31.6 µM
TGI (U251 CNS): > 31.6 µM
TGI (TK-10 renal): > 31.6 µM
TGI (SN12C renal): > 31.6 µM
TGI (MALME-3M melanoma): > 31.6 µM
TGI (NCI-H23 lung): > 31.6 µM
TGI (NCI-H226 lung): > 31.6 µM
TGI (MOLT-4 leukemia): > 31.6 µM
TGI (SF-268 CNS): > 31.6 µM
TGI (OVCAR-3 ovarian): > 31.6 µM
TGI (786-0 renal): > 31.6 µM
TGI (DMS 273 small cell lung): > 31.6 µM
TGI (SK-MEL-2 melanoma): > 31.6 µM
TGI (OVCAR-4 ovarian): > 100 µM
TGI (IGROV1 ovarian): > 31.6 µM
TGI (SNB-19 CNS): > 31.6 µM
TGI (SF-539 CNS): > 31.6 µM
